pIC50: −log10 of the molar value.
Legend:
Assay type in all cases: cell-based
STAT3 = target: T1, STAT3 (Homo sapiens, UniProt P40763); experiment: HiBiT assay, STAT3 degradation in STAT3-HiBiT KI HeLa cells; conditions: 24 h; for DC50: read-out: STAT3 Degradation (HeLa 24 h HiBit) DC50
T1 construct: This cell line is a clone created by using CRISPR-Cas9 to fuse HiBiT to the 3′ end of STAT3 in HeLa cells; host or cells: STAT3-HiBiT KI HeLa cell line (CRISPR-Cas9 knock-in clone)
In short: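 Luminescence of endogenous HiBiT-tagged STAT3 (C-terminal knock-in, HeLa) was measured with lytic Nano-Glo detection after 24 h exposure to serially diluted compounds at 37 °C. Cells plated at 20000/well; untreated cells served as control, and triplicate means were fit by four-parameter regression to give IC50.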

SU-DHL-1 cells = experiment: CellTiter-Glo 2.0 cell viability assay, SU-DHL-1; conditions: Homo sapiens, 96 h, 4 days
In short: (§1)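 IC50 derived by four-parameter nonlinear regression on triplicate luminescence data (CellTiter-Glo 2.0), normalised to untreated controls. Cells plated at 1000/well received serial compound dilutions for 4 days at 37 °C with 5% CO2.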

SUP-M2 cells = experiment: CellTiter-Glo 2.0 cell viability assay, SUP-M2; conditions: SUP-M2, 96 h, 4 days
In short: as §1

T1 sequence (P40763 whole entry): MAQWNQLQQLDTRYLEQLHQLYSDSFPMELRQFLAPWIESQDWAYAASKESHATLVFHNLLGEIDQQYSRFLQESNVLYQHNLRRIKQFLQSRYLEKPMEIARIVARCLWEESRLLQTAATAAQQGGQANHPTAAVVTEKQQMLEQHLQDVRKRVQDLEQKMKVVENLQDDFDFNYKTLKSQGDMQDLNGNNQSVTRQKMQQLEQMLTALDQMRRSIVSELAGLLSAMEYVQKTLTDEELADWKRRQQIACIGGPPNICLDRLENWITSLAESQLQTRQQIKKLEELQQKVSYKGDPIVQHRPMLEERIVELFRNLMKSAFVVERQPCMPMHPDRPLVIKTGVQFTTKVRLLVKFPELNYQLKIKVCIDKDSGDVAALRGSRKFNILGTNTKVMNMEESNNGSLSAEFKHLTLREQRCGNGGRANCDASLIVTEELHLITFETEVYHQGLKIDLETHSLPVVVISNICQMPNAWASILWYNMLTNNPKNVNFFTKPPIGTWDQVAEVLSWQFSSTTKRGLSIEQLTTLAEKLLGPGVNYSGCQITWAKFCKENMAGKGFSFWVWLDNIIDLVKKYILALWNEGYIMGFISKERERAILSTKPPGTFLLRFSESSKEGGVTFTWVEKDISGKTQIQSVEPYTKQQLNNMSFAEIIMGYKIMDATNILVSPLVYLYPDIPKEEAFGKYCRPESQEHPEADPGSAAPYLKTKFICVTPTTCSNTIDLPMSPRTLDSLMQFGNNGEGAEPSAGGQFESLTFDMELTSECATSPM

Structure (SMILES) | Dmax at 1 µM (STAT3) [%] | DC50 (STAT3) [nM] | pIC50 (SU-DHL-1 cells) | pIC50 (SUP-M2 cells)
CC(=O)N1CC[C@H]2CC[C@@H](C(=O)N[C@@H](CCC(N)=O)COc3cccc(CCCCN4CCC([C@@H](C(=O)N5C[C@H](O)C[C@H]5C(=O)N[C@@H](C)c5ccc(-c6scnc6C)cc5)n5cc(C6CC6)nn5)CC4)c3Cl)N2C(=O)[C@@H](NC(=O)c2cc3cc(C(=O)P(=O)(O)O)ccc3[nH]2)C1 [Compound 38, (2-(((5S,8S,10aR)-3-acetyl-8-(((S)-5-amino-1-(2-chloro-3-(4-(4-((S)-1-(4-cyclopropyl-1H-1,2,3-triazol-1-yl)-2-((2S,4R)-4-hydroxy-2-(((S)-1-(4-(4-methylthiazol-5-yl)phenyl)ethyl)carbamoyl)pyrrolidin-1-yl)-2-oxoethyl)piperidin-1-yl)butyl)phenoxy)-5-oxopentan-2-yl)carbamoyl)-6-oxodecahydropyrrolo[1,2-a][1,5]diazocin-5-yl)carbamoyl)-1H-indole-5-carbonyl)phosphonic acid] | 60 to 80 | 100 to 1000 | < 6.00 | 7.00 to 8.00
Cc1ncsc1-c1ccc([C@H](C)NC(=O)[C@@H]2C[C@@H](O)CN2C(=O)[C@@H](n2cc(CCCc3cccc(OC[C@H](CCC(N)=O)NC(=O)[C@@H]4CC[C@@H]5CCN(C(=O)C(C)C)C[C@H](NC(=O)c6cc7cc(C(=O)P(=O)(O)O)ccc7[nH]6)C(=O)N54)c3Cl)nn2)C(C)(C)C)cc1 [Compound 2, (2-(((5S,8S,10aR)-8-(((S)-5-amino-1-(2-chloro-3-(3-(1-((S)-1-((2S,4R)-4-hydroxy-2-(((S)-1-(4-(4-methylthiazol-5-yl)phenyl)ethyl)carbamoyl)pyrrolidin-1-yl)-3,3-dimethyl-1-oxobutan-2-yl)-1H-1,2,3-triazol-4-yl)propyl)phenoxy)-5-oxopentan-2-yl)carbamoyl)-3-isobutyryl-6-oxodecahydropyrrolo[1,2-a][1,5]diazocin-5-yl)carbamoyl)-1H-indole-5-carbonyl)phosphonic acid] | > 80 | < 10 | > 8.00 | > 8.00
CC(=O)N1CC[C@H]2CC[C@@H](C(=O)N[C@@H](CCC(N)=O)COc3cccc(CCCCNC(=O)C[C@H](NC(=O)[C@@H]4C[C@@H](O)CN4C(=O)[C@@H](n4cc(C5CC5)nn4)C(C)(C)C)c4ccc(-c5scnc5C)cc4)c3Cl)N2C(=O)[C@@H](NC(=O)c2cc3cc(C(=O)P(=O)(O)O)ccc3[nH]2)C1 [Compound 7, (2-(((5S,8S,10aR)-3-acetyl-8-(((S)-5-amino-1-(2-chloro-3-(4-((S)-3-((2S,4R)-1-((S)-2-(4-cyclopropyl-1H-1,2,3-triazol-1-yl)-3,3-dimethylbutanoyl)-4-hydroxypyrrolidine-2-carboxamido)-3-(4-(4-methylthiazol-5-yl)phenyl)propanamido)butyl)phenoxy)-5-oxopentan-2-yl)carbamoyl)-6-oxodecahydropyrrolo[1,2-a][1,5]diazocin-5-yl)carbamoyl)-1H-indole-5-carbonyl)phosphonic acid] | > 80 | < 10 | 7.00 to 8.00 | > 8.00
CC(=O)N1CC[C@H]2CC[C@@H](C(=O)N[C@@H](CCC(N)=O)COc3cccc(CCCC(=O)N4CCC([C@@H](C(=O)N5C[C@H](O)C[C@H]5C(=O)N[C@@H](C)c5ccc(-c6scnc6C)cc5)n5cc(C6CC6)nn5)CC4)c3Cl)N2C(=O)[C@@H](NC(=O)c2cc3cc(C(=O)P(=O)(O)O)ccc3[nH]2)C1 [Compound 37, (2-(((5S,8S,10aR)-3-acetyl-8-(((S)-5-amino-1-(2-chloro-3-(4-(4-((S)-1-(4-cyclopropyl-1H-1,2,3-triazol-1-yl)-2-((2S,4R)-4-hydroxy-2-(((S)-1-(4-(4-methylthiazol-5-yl)phenyl)ethyl)carbamoyl)pyrrolidin-1-yl)-2-oxoethyl)piperidin-1-yl)-4-oxobutyl)phenoxy)-5-oxopentan-2-yl)carbamoyl)-6-oxodecahydropyrrolo[1,2-a][1,5]diazocin-5-yl)carbamoyl)-1H-indole-5-carbonyl)phosphonic acid] | 60 to 80 | 100 to 1000 | < 6.00 | 7.00 to 8.00
CCS(=O)(=O)c1ccc(CNC(=O)[C@H](CCC(N)=O)NC(=O)[C@@H]2CC[C@@H]3CCN(C(=O)CCCCc4cn([C@H](C(=O)N5C[C@H](O)C[C@H]5C(=O)N[C@@H](CCN5CCOCC5)c5ccc(-c6scnc6C)cc5)C(C)(C)C)nn4)C[C@H](NC(=O)c4cc5cc(C(=O)P(=O)(O)O)ccc5[nH]4)C(=O)N32)cc1 [Compound 17, (2-(((5S,8S,10aR)-8-(((S)-5-amino-1-((4-(ethylsulfonyl)benzyl)amino)-1,5-dioxopentan-2-yl)carbamoyl)-3-(5-(1-((S)-1-((2S,4R)-4-hydroxy-2-(((S)-1-(4-(4-methylthiazol-5-yl)phenyl)-3-morpholinopropyl)carbamoyl)pyrrolidin-1-yl)-3,3-dimethyl-1-oxobutan-2-yl)-1H-1,2,3-triazol-4-yl)pentanoyl)-6-oxodecahydropyrrolo[1,2-a][1,5]diazocin-5-yl)carbamoyl)-1H-indole-5-carbonyl)phosphonic acid] | > 80 | 100 to 1000 | 6.00 to 7.00 | 6.00 to 7.00
Cc1ncsc1-c1ccc([C@H](C)NC(=O)[C@@H]2C[C@@H](O)CN2C(=O)[C@@H](n2cc(CCCc3cccc(OC[C@H](CCC(N)=O)NC(=O)[C@@H]4CC[C@@H]5CCN(C(=O)CCN6CCN(C)CC6)C[C@H](NC(=O)c6cc7cc(C(=O)P(=O)(O)O)ccc7[nH]6)C(=O)N54)c3Cl)nn2)C(C)(C)C)cc1 [Compound 33, (2-(((5S,8S,10aR)-8-(((S)-5-amino-1-(2-chloro-3-(3-(1-((S)-1-((2S,4R)-4-hydroxy-2-(((S)-1-(4-(4-methylthiazol-5-yl)phenyl)ethyl)carbamoyl)pyrrolidin-1-yl)-3,3-dimethyl-1-oxobutan-2-yl)-1H-1,2,3-triazol-4-yl)propyl)phenoxy)-5-oxopentan-2-yl)carbamoyl)-3-(3-(4-methylpiperazin-1-yl)propanoyl)-6-oxodecahydropyrrolo[1,2-a][1,5]diazocin-5-yl)carbamoyl)-1H-indole-5-carbonyl)phosphonic acid] | > 80 | 10 to 100 | 7.00 to 8.00 | 6.00 to 7.00
CC(=O)N1CC[C@H]2CC[C@@H](C(=O)N[C@@H](CCC(N)=O)COc3cccc(CCCc4cn(C[C@H](NC(=O)[C@@H]5C[C@@H](O)CN5C(=O)[C@@H](n5cc(C6CC6)nn5)C(C)(C)C)c5ccc(-c6scnc6C)cc5)nn4)c3Cl)N2C(=O)[C@@H](NC(=O)c2cc3cc(C(=O)P(=O)(O)O)ccc3[nH]2)C1 [Compound 6, (2-(((5S,8S,10aR)-3-acetyl-8-(((S)-5-amino-1-(2-chloro-3-(3-(1-((R)-2-((2S,4R)-1-((S)-2-(4-cyclopropyl-1H-1,2,3-triazol-1-yl)-3,3-dimethylbutanoyl)-4-hydroxypyrrolidine-2-carboxamido)-2-(4-(4-methylthiazol-5-yl)phenyl)ethyl)-1H-1,2,3-triazol-4-yl)propyl)phenoxy)-5-oxopentan-2-yl)carbamoyl)-6-oxodecahydropyrrolo[1,2-a][1,5]diazocin-5-yl)carbamoyl)-1H-indole-5-carbonyl)phosphonic acid] | > 80 | < 10 | 7.00 to 8.00 | 7.00 to 8.00
CC(=O)N1CC[C@H]2CC[C@@H](C(=O)N[C@@H](CCC(N)=O)COc3cccc(CCCc4cn([C@H](C(=O)N5C[C@H](O)C[C@H]5C(=O)N[C@@H](C)c5ccc(-c6scnc6C)cc5)C5CCN(C6CCOCC6)CC5)nn4)c3Cl)N2C(=O)[C@@H](NC(=O)c2cc3cc(C(=O)P(=O)(O)O)ccc3[nH]2)C1 [Compound 25, (2-(((5S,8S,10aR)-3-acetyl-8-(((S)-5-amino-1-(2-chloro-3-(3-(1-((S)-2-((2S,4R)-4-hydroxy-2-(((S)-1-(4-(4-methylthiazol-5-yl)phenyl)ethyl)carbamoyl)pyrrolidin-1-yl)-2-oxo-1-(1-(tetrahydro-2H-pyran-4-yl)piperidin-4-yl)ethyl)-1H-1,2,3-triazol-4-yl)propyl)phenoxy)-5-oxopentan-2-yl)carbamoyl)-6-oxodecahydropyrrolo [1,2-a][1,5]diazocin-5-yl)carbamoyl)-1H-indole-5-carbonyl)phosphonic acid] | 60 to 80 | 100 to 1000 | 7.00 to 8.00 | 7.00 to 8.00
Cc1ncsc1-c1ccc([C@H](C)NC(=O)[C@@H]2C[C@@H](O)CN2C(=O)[C@@H](n2cc(CCC(=O)N3CC[C@H]4CC[C@@H](C(=O)N[C@@H](CCC(N)=O)C(=O)NC(c5ccccc5)c5ccccc5)N4C(=O)[C@@H](NC(=O)c4cc5cc(C(=O)P(=O)(O)O)ccc5[nH]4)C3)nn2)C(C)(C)C)cc1 [Compound 55, (2-(((5S,8S,10aR)-8-(((S)-5-amino-1-(benzhydrylamino)-1,5-dioxopentan-2-yl)carbamoyl)-3-(3-(1-((S)-1-((2S,4R)-4-hydroxy-2-(((S)-1-(4-(4-methylthiazol-5-yl)phenyl)ethyl)carbamoyl)pyrrolidin-1-yl)-3,3-dimethyl-1-oxobutan-2-yl)-1H-1,2,3-triazol-4-yl)propanoyl)-6-oxodecahydropyrrolo[1,2-a][1,5]diazocin-5-yl)carbamoyl)-1H-indole-5-carbonyl)phosphonic acid] | – | > 1000 | < 6.00 | < 6.00
